Data reported in US20260284074A1, “ENT1 Inhibitors in Combination with Checkpoint Inhibitors” (iTeos Belgium SA, priority 2023, published 2026).

System: TNF, IFNγ, and granzyme B
Assay: Cytokine levels in supernatants of dissociated human tumor cell cultures with ATP
Assay type: cell-based
Settings: 500 μM ATP; Compound 1 300 nM; culture supernatants
Method: Human tumors were dissociated, and cells were CFSE-labelled and stimulated with CD3/CD28 microbeads and IL-2 in the presence of 500 μM of ATP as a source of adenosine.
Human tumor pieces were rinsed with cold PBS and cut into 1 to 2 mm fragments with a scalpel blade and transferred into GentleMACS C tubes. Dissociation of the tissue was completed with the Tumor Dissociation kit (Miltenyi Biotec) according to the manufacturer's instruction. Briefly, 5 mL of dissociation solution—containing 200 μL of enzyme H, 20 μL of enzyme R and 25 μL of enzyme A and RPMI until 5 mL—was added per gram of tumor. The tube was placed in the gentleMACS dissociator and the 1st program was run. An incubation step of 30 minutes at 37° C. was applied with rotation (MACSmix tube rotator). After this incubation, a quick centrifugation (30×rcf, 1 min) was performed, the supernatant containing dissociated cells was collected in a new tube containing FBS (30% of the total volume with supernatant) and placed at 4° C. […] A short centrifugation was performed, the cells in supernatant were pooled with the 1st collection and filtered through a 100 μm cell strainer which was washed with 10 mL RPMI 10% FBS 2% P/S. After centrifugation at 350×rcf for 10 min, cells were resuspended in 20 mL RPMI 10% FBS 2% P/S and counted with a haemocytometer. […]

In the case of `COc1cc(C(=O)O[C@@H]2CCCOc3cc(cc(OC)c3OC)C(=O)NCCCN3CCCN(CC2)CC3)cc(OC)c1OC` [Compound 1, (12R)-7^4,7^5-dimethoxy-6-oxo-8-oxa-5-aza-1(1,4)-diazepana-7(1,3)-benzenacyclotetradecaphane-12-yl 3,4,5-trimethoxybenzoate], the “Production of TNF, IFNγ, and granzyme B suppressed by ATP” value is reported as “restored, to varying extents”.
